PMC10138723, “Cytotoxic Steroidal Saponins Containing a Rare Fructosyl from the Rhizomes of Paris polyphylla var. latifolia” (International Journal of Molecular Sciences, 2023)
Read-outs that look alike come from different tables or passages of the source.

Key:
[1] = test system: EGFR/PI3K/Akt/mTOR signaling pathway in LN229 cells; assay: Western blot of EGFR/PI3K/Akt/mTOR signaling in LN229; format: cell-based, human; settings: LN229, 24 h
Source text: (§1) Primary antibodies against Bax (50599-2-Ig), Bcl-2 (26593-1-AP), Akt (10176-2-AP), p-Akt (28731-1-AP), PI3K (20584-1-AP), p-PI3K (60225-1-Ig), mTOR (28273-1-AP), p-mTOR (67778-1-Ig), Cytochrome C (10993-1-AP), β-actin (20536-1-AP), HRP-Goat-Anti-Mouse IgG (H+L) (SA00001-1), and HRP-Goat-Anti-Rabbit IgG (H+L) (SA00001-2) were obtained from Proteintech Group, Inc. (Rosemont, USA). Primary antibodies against EGFR (WL0682a), p-EGFR (WL03432) and cleaved caspase 3 (WL01992) were obtained from Wanleibio (Shenyang, China). The LN229 cells were treated with various concentrations of 1 or 0.1% DMSO for 24 h. A BCA Protein Assay Kit was used to measure the protein concentration, then equal amounts of protein samples were separated by 10% sodium dodecyl sulfate–polyacrylamide gel electrophoresis and transferred to a polyvinylidene fluoride membrane (Millipore, Burlington, MA, USA). The membranes were blocked for 2 h in Tris-buffered saline with PBST buffer, containing 5% skim milk. Then, the membranes were incubated with the appropriate primary antibodies overnight at 4 ℃. Then, the membranes were washed with PBST and reacted with a secondary horseradish peroxidase-conjugated antibody. Image Lab 5.2.1 (Biorad Laboratories, Hercules, CA, USA) was used to analyze the blots after detection using enhanced chemiluminescence (Millipore). Data analyses were performed using the GraphPad Prism software (San Diego, CA, USA).

[2] = test system: U251 (human glioma cells); assay: CCK-8 cytotoxic assay, U251; format: cell-based; settings: read-out: IC50 ± SD, U251
Source text: (§2) U251 (human glioma cells), HeLa (human cervical cancer cells), and HepG2 (human hepatic cancer cells) were purchased from the Chinese Academy of Sciences (China), and Capan-2 (human pancreatic cancer cells) were obtained from Nanjing Cobioer Biosicences (Nanjing, China). American Type Culture Collection (ATCC) provided LN229 (human glioma cells). NHA (Gibco Human Astrocytes) and Gibco Astrocyte Medium (DMEM, N-2 Supplement, One Shot fetal bovine serum) were purchased from ThermoFisher Scientific (Waltham, MA, USA). The LN229, U251, HepG2 and HeLa cells were cultured in DMEM (Procell, Wuhan, China). The Capan-2 cells were cultured in RPMI-1640 (Procell, Wuhan, China) and NHA cells were cultured in Gibco Astrocyte Medium, supplemented with 10% FBS (Solarbio, Beijing, China) and 1% Penicillin–Streptomycin (Elabscience Biotechnology Co.,Ltd, Wuhan, China) at 37 °C with 5% CO2.
(§3) In the exponential phase of the growth, five tumor cell lines and one normal human astrocytes were plated onto 96-well plates at a concentration of 8000 cells/well for 24 h. Compounds 1–12 were prepared to various concentrations (64, 32, 16, 8, 4, 2, 1 and 0.5 µM in medium containing less than 0.1% DMSO) and incubated in 96-well plates (each concentration in four-fold wells) for 24 h. Cell viability was determined according to reported assay methods using the commercial CCK-8 kit (Elabscience Biotechnology Co., Ltd., Wuhan, China). The optical density (OD) of each well was measured with an AMR-100 microplate reader at 450 nm (Allsheng Corporation, Hangzhou, China). Cytotoxicity emerged as the value of the drug concentration at the inhibition of cell growth by 50% (IC50). The experiments were conducted for three independent replicates, and Doxorubicin was used as the positive control.

[3] = test system: HepG2 (human hepatic cancer cells); assay: CCK-8 cytotoxic assay, HepG2; format: cell-based; settings: read-out: IC50 ± SD, HepG2
Source text: as §2, §3

[4] = test system: Capan-2 (human pancreatic cancer cells); assay: CCK-8 cytotoxic assay, Capan-2; format: cell-based; settings: read-out: IC50 ± SD, Capan-2
Source text: as §2, §3

[5] = test system: five cancer cell lines (LN229, U251, Capan-2, HeLa, HepG2); assay: CCK-8 cytotoxic assay, summary over five cancer cell lines; format: cell-based; settings: Homo sapiens, range over compounds 1 and 2 and five cancer cell lines, read-out: IC50 values (range) against five cancer cell lines
Source text: as §2
In the exponential phase of the growth, five tumor cell lines and one normal human astrocytes were plated onto 96-well plates at a concentration of 8000 cells/well for 24 h. […] Cell viability was determined according to reported assay methods using the commercial CCK-8 kit (Elabscience Biotechnology Co., Ltd., Wuhan, China). The optical density (OD) of each well was measured with an AMR-100 microplate reader at 450 nm (Allsheng Corporation, Hangzhou, China). […]

glioma cells LN229 = assay: Flow cytometry analysis for apoptosis (Annexin V-FITC/PI); format: cell-based, human; settings: different concentrations, 24 h
Description: Flow cytometry was used to analyze the effect of 1 on the apoptosis of glioma cells LN229. Cells were treated with different concentrations of 1 for 24 h. Then, the cells were collected and washed twice with cold PBS for five minutes (1000 rpm). The cells were analyzed for apoptosis by flow cytometry (BD, Franklin Lakes, NJ, USA) using the Annexin V-FITC/PI assay kit.

[6] = test system: Bax/Bcl-2, cleaved caspase 3, cytochrome c in LN229 cells; assay: Western blot of apoptosis-related proteins in LN229; format: cell-based, human; settings: LN229, 24 h, compared with the control group
Source text: as §1

[7] = test system: LN229 (human glioma cells); assay: CCK-8 cytotoxic assay, LN229; format: cell-based; settings: read-out: IC50 ± SD, LN229
Source text: as §2, §3

[8] = test system: NHA (normal human astrocytes); assay: CCK-8 cytotoxic assay, NHA normal astrocytes; format: cell-based; settings: Astrocyte, read-out: IC50 ± SD, NHA
Source text: as §2, §3

[9] = test system: HeLa (human cervical cancer cells); assay: CCK-8 cytotoxic assay, HeLa; format: cell-based; settings: read-out: IC50 ± SD, HeLa
Source text: as §2, §3

[10] = LN-229, LN229 cells, CCK-8, 24 h
[11] = NHA normal human astrocytes, CCK-8, 24 h

Structure (SMILES)	IC50 ([2]; U-251, U251 cells, CCK-8, 24 h) [µM]	IC50 ([3]; HepG2 cells, CCK-8, 24 h) [µM]	IC50 ([4]; Capan-2 cells, CCK-8, 24 h) [µM]	IC50 [5] [µM]	IC50 [7, 10] [µM]	IC50 [8, 11] [µM]	IC50 ([9]; HeLa cells, CCK-8, 24 h) [µM]	further results
CC1CCC2(OC1)OC1CC3C4CC=C5CC(OC6OC(COC7(CO)OC(CO)C(O)C7O)C(O)C(O)C6OC6OC(C)C(O)C(O)C6O)CCC5(C)C4CCC3(C)C1C2C [Compound 1, diosgenin-3-O-β-D-fructofuranosyl-(1→6)-[α-L-rhamnopyranosyl-(1 → 2)]-β-D-glucopyranoside]	3.85 ± 0.44	4.32 ± 0.51	3.26 ± 0.34	3.26 to 22.3	4.18 ± 0.31	> 50	3.3 ± 0.38	expression level of p-Akt [1]: decreased; expression level of p-PI3K [1]: decreased; expression level of p-mTOR [1]: decreased; expression of total EGFR [1]: no evident effect; phosphorylation levels of EGFR [1]: significantly suppressed; ratio of apoptotic LN229 (Annexin V+/PI−) (glioma cells LN229): increased; ratio of living cells (Annexin V−/PI−) (glioma cells LN229): decreased; expression of Bax/Bcl-2 [6]: significantly increased; expression of cleaved caspase 3 [6]: significantly increased; expression of cytochrome c [6]: significantly increased
CC1CCC2(OC1)OC1CC3C4CC=C5CC(OC6OC(COC7(CO)OC(CO)C(O)C7O)C(OC7OC(CO)C(O)C7O)C(O)C6OC6OC(C)C(O)C(O)C6O)CCC5(C)C4CCC3(C)C1C2C [Compound 2, diosgenin-3-O-β-D-fructofuranosyl-(1 → 6)-[α-L-arabinofuranosyl-(1→4)]-[α-L-rhamnopyranosyl-(1→2)]-β-D-glucopyranoside]	15.8 ± 0.65	18.8 ± 1.25	20.4 ± 1.05	3.26 to 22.3	15.4 ± 0.47	> 50	22.3 ± 1.33	–
C=C1C(=O)OC2CC3C4CC=C5CC(OC6OC(CO)C(OC7OC(CO)C(O)C7O)C(O)C6OC6OC(C)C(O)C(O)C6O)CCC5(C)C4CCC3(C)C12 (stereo not drawn) [Compound 3]	> 50	> 50	> 50	–	> 50	> 50	> 50	–
CC(=O)C1=CCC2C3CC=C4C[C@@H](O[C@@H]5O[C@H](CO)[C@@H](O[C@@H]6O[C@@H](CO)[C@H](O)[C@H]6O)[C@H](O)[C@H]5O[C@@H]5O[C@@H](C)[C@H](O)[C@@H](O)[C@H]5O)CC[C@]4(C)C3CC[C@]12C (stereo partly drawn) [Compound 4, pregna-5,16-diene-3β-ol-20-one-3-O-α-L-arabinofuranosyl-(1 → 4)-[α-L-rhamnopyranosyl(1 → 2)]-β-D-glucopyranoside]	> 50	> 50	> 50	–	> 50	> 50	> 50	–
C=C1C(=O)OC2CC3C4CC=C5CC(OC6OC(CO)C(OC7OC(C)C(O)C(O)C7O)C(O)C6OC6OC(C)C(O)C(O)C6O)CCC5(C)C4CCC3(C)C12 (stereo not drawn) [Compound 5, chonglouoside SL-8]	> 50	> 50	> 50	–	> 50	> 50	> 50	–
C=C1C(=O)OC2CC3C4CC=C5CC(OC6OC(CO)C(O)C(O)C6OC6OC(C)C(O)C(O)C6O)CCC5(C)C4CCC3(C)C12 (stereo not drawn) [Compound 6, pallidifloside D]	–	–	–	–	–	–	–	IC50 ([2]; U-251, 24 h): > 50 µM; IC50 ([3]; HepG2, 24 h): > 50 µM; IC50 ([4]; Capan-2, 24 h): > 50 µM; IC50 ([7]; LN-229, 24 h): > 50 µM; IC50 ([8]; Homo sapiens, 24 h): > 50 µM; IC50 ([9]; HeLa, 24 h): > 50 µM
